Test [1] has as its target T1, Arachidonate 5-lipoxygenase-activating protein (Homo sapiens, UniProt P20292).
T1 sequence (P20292 whole entry): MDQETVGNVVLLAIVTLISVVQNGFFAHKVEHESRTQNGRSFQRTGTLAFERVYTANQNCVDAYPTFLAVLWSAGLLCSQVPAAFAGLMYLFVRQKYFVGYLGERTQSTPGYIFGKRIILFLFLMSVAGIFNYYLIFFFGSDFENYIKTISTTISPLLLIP
Nature of the test: Displacement of [3H]-3-[5-(pyrid-2-ylmethoxy)-3-tert-butylthio-1-benzylindol-2-yl]-2,2-dimethylpropionic acid from FLAP in human polymorphonuclear cell membranes after 1 hr by scintillation counting. (In general: In a radioligand displacement assay an active substance lowers the binding of a labelled ligand.)

Test [2] deals with T1, Arachidonate 5-lipoxygenase-activating protein. Nature of the test: Inhibition of FLAP in human whole blood assessed as inhibition of calcium ionophore A23187-induced LTB4 production preincubated for 15 mins by ELISA. In general terms: An ELISA detects its analyte on a solid surface through an enzyme-linked reagent.
Test [3] shares this target. Kind of test: Inhibition of FLAP in human peripheral leukocytes assessed as inhibition of calcium ionophore A23187-induced LTB4 production after 10 mins by ELISA. In kind it is cell-based.
Test [4] has the same target. Kind of test: Inhibition of FLAP in human whole blood assessed as inhibition of calcium ionophore A23187-induced LTB4 production preincubated for 5 hrs by ELISA.
Test [5] addresses Prostaglandin G/H synthase 1 (Homo sapiens, UniProt P23219). Kind of test: Inhibition of COX1-mediated TXB2 production in human whole blood after 30 mins by competitive enzyme immunoassay.

Usually IC50 stands for the concentration that gives 50% inhibition.

Chain of Prostaglandin G/H synthase 1 (P23219 whole entry): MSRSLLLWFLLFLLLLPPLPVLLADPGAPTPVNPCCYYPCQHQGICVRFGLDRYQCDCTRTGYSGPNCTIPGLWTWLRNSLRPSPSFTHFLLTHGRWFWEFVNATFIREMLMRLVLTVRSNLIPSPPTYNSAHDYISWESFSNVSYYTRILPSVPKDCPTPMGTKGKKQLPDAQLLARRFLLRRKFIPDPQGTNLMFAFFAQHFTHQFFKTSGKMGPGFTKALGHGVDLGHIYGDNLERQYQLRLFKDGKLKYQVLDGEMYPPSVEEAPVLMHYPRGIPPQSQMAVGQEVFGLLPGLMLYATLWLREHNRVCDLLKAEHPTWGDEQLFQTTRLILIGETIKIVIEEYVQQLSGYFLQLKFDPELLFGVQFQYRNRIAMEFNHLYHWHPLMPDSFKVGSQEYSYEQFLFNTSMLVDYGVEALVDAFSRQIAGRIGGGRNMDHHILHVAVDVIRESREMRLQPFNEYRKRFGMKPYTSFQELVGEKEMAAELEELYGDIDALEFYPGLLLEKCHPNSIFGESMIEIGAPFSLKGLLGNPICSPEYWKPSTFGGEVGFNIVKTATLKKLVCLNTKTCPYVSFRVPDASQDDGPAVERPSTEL

Turning to `COc1ccc(-c2ccc(Cn3c(CC(C)(C)C(=O)O)c(SC(C)(C)C)c4cc(OCc5ncccc5C)ccc43)cc2)cn1`, the figures for the IC50 in test [1], in test [2] and in test [3] were 17.4 nM, 1290 nM and 1.1 nM, respectively.
On to `COc1ccc(-c2ccc(Cn3c(CC(C)(C)C(=O)O)c(SC(C)(C)C)c4cc(OCc5ccc(C(N)=O)cn5)ccc43)cc2)cn1`, for which the figures for the IC50 in test [1], in test [2] and in test [3] were 3270 nM, 39000 nM and 229 nM, respectively.
Take `COc1ccc(-c2ccc(Cn3c(CC(C)(C)C(=O)O)c(SC(C)(C)C)c4cc(OCc5cnc(C)cn5)ccc43)cc2)cn1`: the 50% inhibitory concentration (IC50) worked out at 5.4 nM in test [1], 208 nM in test [2], 281 nM in test [4] and 3.3 nM in test [3].
Consider `COc1ccc(-c2ccc(Cn3c(CC(C)(C)C(=O)O)c(SC(C)(C)C)c4cc(OCc5cc(C)n(C)n5)ccc43)cc2)cn1`, for which the IC50 in test [1] stood at 1600 nM; in test [2], 26300 nM; in test [3], 26.8 nM.
Turning to `COc1cccnc1-c1ccc(Cn2c(CC(C)(C)C(=O)O)c(SC(C)(C)C)c3cc(OCc4ccc(C)cn4)ccc32)cc1`, the IC50 is 4.6 nM in test [1], 1460 nM in test [2] and 0.8 nM in test [3].
Take `COc1ccc(-c2ccc(Cn3c(CC(C)(C)C(=O)O)c(SC(C)(C)C)c4cc(OCc5cc6ccccc6[nH]5)ccc43)cc2)cn1`: the IC50 came out at 1250 nM in test [1], 11800 nM in test [2] and 11.1 nM in test [3].
Turning to `COc1ccc(-c2ccc(Cn3c(CC(C)(C)C(=O)O)c(SC(C)(C)C)c4cc(OCc5ncc(C)cc5C)ccc43)cc2)cn1`, the figures for the IC50 in test [1], in test [2] and in test [3] were 59.3 nM, 1790 nM and 1.2 nM, respectively.
For `Cc1ccc(COc2ccc3c(c2)c(SC(C)(C)C)c(CC(C)(C)C(=O)O)n3Cc2ccc(-c3ccc(C(F)(F)F)cn3)cc2)nc1`, the 50% inhibitory concentration (IC50) amounted to 2.7 nM in test [1], 435 nM in test [2], 202 nM in test [4] and 0.5 nM in test [3].
Turning to `CCOc1ccc(-c2ccc(Cn3c(CC(C)(C)C(=O)O)c(SC(C)(C)C)c4cc(OCc5ccc(C)c[n+]5[O-])ccc43)cc2)cn1`, the IC50 amounted to 89.5 nM in test [1], 873 nM in test [2], 1390 nM in test [4] and 4.6 nM in test [3].
`COc1ccc(-c2ccc(Cn3c(CC(C)(C)C(=O)O)c(SC(C)(C)C)c4cc(OCc5cc(C)on5)ccc43)cc2)cn1`: the 50% inhibitory concentration (IC50) came to 114 nM in test [1], 2420 nM in test [2] and 2.4 nM in test [3].
With `CCOc1ccc(-c2ccc(Cn3c(CC(C)(C)C(=O)O)cc4cc(OCc5ccc(C)cn5)ccc43)cc2)cn1`, the figures for the IC50 in test [1], in test [2] and in test [3] were 219 nM, 22300 nM and 22.6 nM, respectively.
As for `COc1ccc(-c2ccc(Cn3c(CC(C)(C)C(=O)O)c(SC(C)(C)C)c4cc(OCc5ccc(C)c(C)n5)ccc43)cc2)cn1`, the IC50 was 3.4 nM in test [1], 570 nM in test [2], 225 nM in test [4] and 0.6 nM in test [3].
As for `Cc1ccc(COc2ccc3c(c2)c(SC(C)(C)C)c(CC(C)(C)C(=O)O)n3Cc2ccc(-c3ccccn3)cc2)nc1`, the IC50 in test [1] worked out at 1.3 nM; in test [2], 285 nM; in test [3], 0.6 nM; in test [5], 9000 nM.
Take `COc1ccc(-c2ccc(Cn3c(CC(C)(C)C(=O)O)c(SC(C)(C)C)c4cc(OCc5cn6ccccc6n5)ccc43)cc2)cn1`: the 50% inhibitory concentration (IC50) turned out to be 8.9 nM in test [1], 980 nM in test [2], 552 nM in test [4] and 1.4 nM in test [3].
Consider `Cc1ccc(COc2ccc3c(c2)c(SC(C)(C)C)c(CC(C)(C)C(=O)O)n3Cc2ccc(-c3ccc(C(F)(F)F)nc3)cc2)nc1`, for which the IC50 in test [1] was 3.2 nM; in test [2], 401 nM; in test [4], 180 nM; in test [3], 0.4 nM.
As for `COc1ccc(-c2ccc(Cn3c(CC(C)(C)C(=O)O)c(SC(C)(C)C)c4cc(OCc5cc(C)nn5C)ccc43)cc2)cn1`, the IC50 in test [1] was 2470 nM; in test [2], 16600 nM; in test [3] it was 19.7 nM.
Consider `COc1ccc(-c2ccc(Cn3c(CC(C)(C)C(=O)O)c(SC(C)(C)C)c4cc(OCc5cc(C)ccn5)ccc43)cc2)cn1`, for which the IC50 in test [1] amounted to 21.8 nM; in test [2], 3300 nM; in test [3] it was 1.8 nM.
Taken in the same sequence, the figures for `COc1ccc(-c2ccc(Cn3c(CC(C)(C)C(=O)O)c(SC(C)(C)C)c4cc(OCc5ccc(Cl)cn5)ccc43)cc2)cn1` were 26.5 nM, 1160 nM and 0.7 nM.
For `COc1ccc(-c2ccc(Cn3c(CC(C)(C)C(=O)O)c(SC(C)(C)C)c4cc(OCc5cnc6ccccc6n5)ccc43)cc2)cn1`, the IC50 was 11.4 nM in test [1], 542 nM in test [2], 456 nM in test [4] and 0.7 nM in test [3].
On to `COc1ccc(-c2ccc(Cn3c(CC(C)(C)C(=O)O)c(SC(C)(C)C)c4cc(OCc5ccc6cc(C)ccc6n5)ccc43)cc2)cn1`, for which the IC50 in test [1] amounted to 148 nM; in test [2], 3880 nM; in test [3], 1.7 nM.
As to `Cc1ccc(COc2ccc3c(c2)c(SC(C)(C)C)c(CC(C)(C)C(=O)O)n3Cc2ccc(-c3ccc(F)cn3)cc2)nc1`, in test [5], the IC50 was over 30000 nM.
On to `COc1ccc(COc2ccc3c(c2)c(SC(C)(C)C)c(CC(C)(C)C(=O)O)n3Cc2ccc(-c3ccc(OC)nc3)cc2)nc1`, for which the IC50 came to 8 nM in test [1], 688 nM in test [2], 652 nM in test [4] and 0.7 nM in test [3].
Consider `COc1ccc(-c2ccc(Cn3c(CC(C)(C)C(=O)O)c(SC(C)(C)C)c4cc(OCc5cccc(C)n5)ccc43)cc2)cn1`, for which the IC50 amounted to 3.1 nM in test [1], 535 nM in test [2], 359 nM in test [4] and 0.5 nM in test [3].
Take `CCc1ccc(COc2ccc3c(c2)c(SC(C)(C)C)c(CC(C)(C)C(=O)O)n3Cc2ccc(-c3ccc(OC)nc3)cc2)nc1`: the concentration for half-maximal inhibition (IC50) in test [1] was determined as 10.1 nM; in test [2], 1200 nM; in test [4], 1390 nM; in test [3], 0.6 nM.
Turning to `CCOc1ccc(-c2ccc(Cn3c(CC(C)(C)C(=O)O)c([S+]([O-])C(C)(C)C)c4cc(OCc5ccc(C)cn5)ccc43)cc2)cn1` (racemic), the IC50 in test [1] worked out at 559 nM; in test [2], 33200 nM; in test [3], 253 nM.
Turning to `CCOc1ccc(-c2ccc(Cn3c(CC(C)(C)C(=O)O)c(C(=O)CC(C)(C)C)c4cc(OCc5ccc(C)cn5)ccc43)cc2)cn1`, the IC50 is 29.3 nM in test [1], 1580 nM in test [2], 2000 nM in test [4] and 1.5 nM in test [3].
In the case of `COc1ccc(-c2ccc(Cn3c(CC(C)(C)C(=O)O)c(SC(C)(C)C)c4cc(OCc5ccc6ccccc6n5)ccc43)cc2)cn1`, the IC50 came out at 5.3 nM in test [1], 502 nM in test [2], 194 nM in test [4] and 0.8 nM in test [3].
In the case of `CCOc1ccc(-c2ccc(Cn3c(CC(C)(C)C(=O)O)c(C(=O)Cc4ccccc4)c4cc(OCc5ccc(C)cn5)ccc43)cc2)cn1`, the IC50 in test [1] is 22500 nM; in test [2], 32600 nM; in test [3], 64 nM.
Take `COc1ccc(-c2ccc(Cn3c(CC(C)(C)C(=O)O)c(SC(C)(C)C)c4cc(OCc5ccc6ccc(F)cc6n5)ccc43)cc2)cn1`: the results for the IC50 in test [1], in test [2] and in test [3] were 327 nM, 3220 nM and 2.1 nM, respectively.
